{
  "source": "patent US6740653B2",
  "about": "“Shelf life extension of microemulsions containing active aza biocide” (ISP Investments Inc., priority 2001, dated 2004)",
  "origin": "cited, not measured here",
  "data": [
    {"smiles": "Cc1ccc(/N=C/N(C)/C=N/c2ccc(C)cc2C)c(C)c1", "note": "[Amitraz]", "values": [
      {"measurement": "soluble in water", "result": 1, "unit": "mg/L"}
    ]}
  ]
}
